Our source for the percent response (growth) and EC50 values is PubChem BioAssay AID2125 (NMMLSC, 2009).

Activity calls are given as the source filed them.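 How the source made its calls: active means combined score above 50, rising as EC50 falls below 10 µM and growth at top dose drops; inactive means the rest.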 Peptide text beside a SMILES is read from it. * marks the point of attachment. Cbz = O=C(OCc1ccccc1)*

Test systems include YE4012; YE3963; YE4006; YE3965; YE3962; YE3957; YE4010; YE3955; YE4005.
Experiment in all cases: growth inhibition of S. cerevisiae strain panel, profiling panel, 26S proteasome disassembly project, secondary panel, OD600 (AID 2125)
Holding throughout (conditions): growth OD600, 6-8 h

Where [1] appears, read: at 100 µM, active compounds read low.

As usually defined, the EC50 is the concentration needed to bring the measured effect to its halfway point. With `CC(=O)N1C(=O)C(=C2C=C(C)OC(C)=C2)c2ccccc21`, the percent response (growth) in the test with YE4012 (setting [1]) is 96.9% (inactive); in the test on YE3963 (setting [1]), 63.5% (inactive); in the test with YE3965 (setting [1]), 34.3% (inactive); with YE3957 (setting [1]) it was 100% (inactive); with YE3955 (setting [1]) it was 70.6% (inactive); in the test on YE4005 (setting [1]), 70.5% (inactive). Moreover, the values for the EC50 with YE4006, in the test on YE3962 and with YE4010 were 36 µM (inactive), 0.16 µM and 0.13 µM, respectively.

Turning to `CC(C)C[C@@H](C=O)NC(=O)[C@H](CC(C)C)NC(=O)[C@H](CC(C)C)NC(=O)OCc1ccccc1` (Cbz-Leu-Leu-Leu-aldehyde), the EC50 with YE4012 was 1550 µM (inactive); with YE3963, 0.93 µM; in the test on YE3965, 1.05 µM; with YE3957, 2.86 µM; in the test on YE3955, 0.9 µM; in the test with YE4005, 1.24 µM. For the same compound, the percent response (growth) in the test on YE4006 (setting [1]) was 63.7% (inactive); in the test on YE3962 (setting [1]), 47.5% (inactive); in the test with YE4010 (setting [1]), 75.5% (inactive).
